From patent publication US20070117770A1, “Human ribosomal DNA (rDNA) and ribosomal RNA (rRNA) nucleic acids and uses thereof” (Cylene Pharmaceuticals, Inc., priority 2005, published 2007)

Tests used:
Assay in all cases: Protein kinase inhibition assay
Assay type in all cases: biochemical
Fyn(h) = Fyn(h) (Homo sapiens, UniProt P06241); details: read-out: percent residual activity of Fyn(h)
Protocol: (§1) Certain compounds were tested for activity in protein kinase inhibition assays. All substrates were dissolved and diluted to working stocks in de-ionized water, apart from histone H1 (10× working stock in 20 mM MOPS pH 7.0), PDKtide (10× working stock in 50 mM Tris pH 7.0) ATF2 (which is typically stored at a 20× working stock in 50 mM Tris pH 7.5, 150 mM NaCl, 0.1 mM EGTA, 0.03% Brij-35, 50% glycerol, 1 mM benzamidine, 0.2 mM PMSF and 0.1% R-mercaptoethanol), KKLNRTLSFAEPG (SEQ ID NO:203) and RRRLSFAEPG (SEQ ID NO:204) (50 mM HEPES pH 7.4) and GGEEEEYFELVKKKK (SEQ ID NO:205) (20 mM MOPS pH 7.0). All kinases were pre-diluted to a 10× working concentration prior to addition into the assay. The composition of the dilution buffer for each kinase is detailed below.
(§2) In a final reaction volume of 25 μl, Fyn (h) (5-10 mU) is incubated with 50 mM Tris pH 7.5, 0.1 mM EGTA, 0.1 mM Na3VO4, 250 μM KVEKIGEGTYGVVYK (SEQ ID NO:220) (Cdc2 peptide), 10 mM MgAcetate and [gamma-33P-ATP] (specific activity approx. 500 cpm/pmol, concentration as required). The reaction is initiated by the addition of the MgATP mix. After incubation for 40 minutes at room temperature, the reaction is stopped by the addition of 5 μl of a 3% phosphoric acid solution. […]

Flt3(h) = Flt3(h) (Homo sapiens, UniProt P36888); details: read-out: percent residual activity of Flt3(h)
Flt3(h), sequence (P36888 27-993): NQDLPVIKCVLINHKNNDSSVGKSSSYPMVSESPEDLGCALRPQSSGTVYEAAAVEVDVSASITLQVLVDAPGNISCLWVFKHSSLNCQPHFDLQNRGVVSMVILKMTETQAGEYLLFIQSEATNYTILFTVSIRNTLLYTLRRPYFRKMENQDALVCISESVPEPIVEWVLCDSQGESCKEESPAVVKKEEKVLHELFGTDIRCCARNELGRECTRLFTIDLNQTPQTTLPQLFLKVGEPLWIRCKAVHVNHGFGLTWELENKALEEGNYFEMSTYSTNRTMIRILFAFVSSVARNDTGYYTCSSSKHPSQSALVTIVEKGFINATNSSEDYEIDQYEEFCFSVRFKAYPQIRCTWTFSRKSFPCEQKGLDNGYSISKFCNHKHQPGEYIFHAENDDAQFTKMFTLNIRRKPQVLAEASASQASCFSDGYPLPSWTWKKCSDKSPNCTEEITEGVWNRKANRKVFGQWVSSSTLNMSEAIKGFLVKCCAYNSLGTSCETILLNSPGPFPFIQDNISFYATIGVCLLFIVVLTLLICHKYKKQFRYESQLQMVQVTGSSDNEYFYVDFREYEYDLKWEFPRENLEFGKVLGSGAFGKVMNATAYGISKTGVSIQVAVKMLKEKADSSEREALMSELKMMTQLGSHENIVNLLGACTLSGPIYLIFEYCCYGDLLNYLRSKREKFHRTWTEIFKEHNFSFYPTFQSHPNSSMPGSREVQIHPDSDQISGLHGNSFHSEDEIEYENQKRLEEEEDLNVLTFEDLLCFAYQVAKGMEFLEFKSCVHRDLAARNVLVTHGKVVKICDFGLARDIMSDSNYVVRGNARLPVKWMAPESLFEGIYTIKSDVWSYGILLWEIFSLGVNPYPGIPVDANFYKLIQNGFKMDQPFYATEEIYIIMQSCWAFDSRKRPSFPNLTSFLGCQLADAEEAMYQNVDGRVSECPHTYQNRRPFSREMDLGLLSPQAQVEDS
Protocol: as §1
(§3) In a final reaction volume of 25 μl, Flt3 (h) (5-10 mU) is incubated with 8 mM MOPS pH 7.0, 0.2 mM EDTA, 50 μM EAIYAAPFAKKK (SEQ ID NO:206), 10 mM MgAcetate and [gamma-33P-ATP] (specific activity approx. 500 cpm/pmol, concentration as required). The reaction is initiated by the addition of the MgATP mix. After incubation for 40 minutes at room temperature, the reaction is stopped by the addition of 5 μl of a 3% phosphoric acid solution. 10 μl of the reaction is then spotted onto a P30 filtermat and washed three times for 5 minutes in 75 mM phosphoric acid and once in methanol prior to drying and scintillation counting.

MuSK(h) = MuSK(h) (Homo sapiens, UniProt O15146); details: read-out: percent residual activity of MuSK(h)
MuSK(h), sequence (O15146 24-869): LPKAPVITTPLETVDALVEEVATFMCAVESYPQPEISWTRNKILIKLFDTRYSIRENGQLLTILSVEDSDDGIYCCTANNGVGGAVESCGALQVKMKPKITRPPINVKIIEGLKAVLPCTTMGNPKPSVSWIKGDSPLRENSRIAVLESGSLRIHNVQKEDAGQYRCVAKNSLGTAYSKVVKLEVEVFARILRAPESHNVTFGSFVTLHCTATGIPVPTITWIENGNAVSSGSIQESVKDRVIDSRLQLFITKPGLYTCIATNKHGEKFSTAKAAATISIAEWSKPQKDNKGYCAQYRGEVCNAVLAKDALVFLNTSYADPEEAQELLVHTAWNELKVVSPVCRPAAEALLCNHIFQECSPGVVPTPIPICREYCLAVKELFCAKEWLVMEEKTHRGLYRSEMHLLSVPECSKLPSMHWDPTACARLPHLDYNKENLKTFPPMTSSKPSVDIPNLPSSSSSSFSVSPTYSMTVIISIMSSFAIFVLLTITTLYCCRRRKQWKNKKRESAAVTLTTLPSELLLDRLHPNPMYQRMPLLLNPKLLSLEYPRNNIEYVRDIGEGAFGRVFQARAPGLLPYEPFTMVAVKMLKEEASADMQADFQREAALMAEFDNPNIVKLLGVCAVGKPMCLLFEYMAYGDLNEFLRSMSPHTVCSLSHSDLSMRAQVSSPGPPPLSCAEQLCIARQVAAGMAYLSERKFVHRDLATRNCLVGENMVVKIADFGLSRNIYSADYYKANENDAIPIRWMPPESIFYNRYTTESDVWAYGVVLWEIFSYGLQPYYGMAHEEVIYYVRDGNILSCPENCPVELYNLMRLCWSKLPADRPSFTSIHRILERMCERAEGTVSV
Protocol: as §1
as §3, with “MuSK” for “Flt3”, “5 mM MnCl2, 0.33 mg/ml myelin basic protein,” for “50 μM EAIYAAPFAKKK (SEQ ID NO:206),”

cKit(D816V)(h) = cKit(D816V)(h) (Homo sapiens, UniProt P10721, D816V); details: read-out: percent residual activity of cKit(D816V)(h)
cKit(D816V)(h), sequence (P10721 26-976 D816V): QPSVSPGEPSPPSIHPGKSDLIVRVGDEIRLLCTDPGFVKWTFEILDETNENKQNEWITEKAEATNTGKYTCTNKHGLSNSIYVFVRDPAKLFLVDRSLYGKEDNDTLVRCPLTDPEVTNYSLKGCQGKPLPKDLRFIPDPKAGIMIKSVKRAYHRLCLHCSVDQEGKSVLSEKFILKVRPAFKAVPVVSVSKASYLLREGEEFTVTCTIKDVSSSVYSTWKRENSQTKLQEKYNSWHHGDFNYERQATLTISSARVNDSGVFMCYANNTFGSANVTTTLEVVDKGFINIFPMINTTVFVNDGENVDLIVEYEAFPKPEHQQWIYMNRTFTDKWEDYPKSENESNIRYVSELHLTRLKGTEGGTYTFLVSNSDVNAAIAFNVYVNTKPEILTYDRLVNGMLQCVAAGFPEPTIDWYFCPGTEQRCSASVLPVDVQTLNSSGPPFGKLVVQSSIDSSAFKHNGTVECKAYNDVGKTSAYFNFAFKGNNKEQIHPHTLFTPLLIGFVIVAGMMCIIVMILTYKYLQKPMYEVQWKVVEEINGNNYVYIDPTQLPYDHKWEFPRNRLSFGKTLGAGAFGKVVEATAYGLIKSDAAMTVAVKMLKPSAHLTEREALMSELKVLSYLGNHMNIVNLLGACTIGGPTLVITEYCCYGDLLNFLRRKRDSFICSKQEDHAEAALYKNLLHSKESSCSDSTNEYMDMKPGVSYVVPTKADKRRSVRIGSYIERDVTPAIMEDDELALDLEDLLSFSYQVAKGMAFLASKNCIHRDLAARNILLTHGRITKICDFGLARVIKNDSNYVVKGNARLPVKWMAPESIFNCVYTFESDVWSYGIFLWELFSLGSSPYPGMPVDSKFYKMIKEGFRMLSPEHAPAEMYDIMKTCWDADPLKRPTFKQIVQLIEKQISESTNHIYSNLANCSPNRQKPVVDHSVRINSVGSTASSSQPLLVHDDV
Protocol: as §1
as §2, with “μl, cKit (D816V)” for “μl, Fyn”, “with 8” for “with 50”, “mM MOPS” for “mM Tris”, “pH 7.0, 0.2 mM EDTA, 10 mM MnCl2,” for “pH 7.5,”, “0.1 mg/ml poly(Glu, Tyr) 4:1,” for “0.1 mM EGTA, 0.1 mM Na3VO4, 250 μM KVEKIGEGTYGVVYK (SEQ ID NO:220) (Cdc2 peptide),”

RIPK2(h) = RIPK2(h) (Homo sapiens, UniProt O43353); details: read-out: percent residual activity of RIPK2(h)
RIPK2(h), sequence (O43353 whole entry): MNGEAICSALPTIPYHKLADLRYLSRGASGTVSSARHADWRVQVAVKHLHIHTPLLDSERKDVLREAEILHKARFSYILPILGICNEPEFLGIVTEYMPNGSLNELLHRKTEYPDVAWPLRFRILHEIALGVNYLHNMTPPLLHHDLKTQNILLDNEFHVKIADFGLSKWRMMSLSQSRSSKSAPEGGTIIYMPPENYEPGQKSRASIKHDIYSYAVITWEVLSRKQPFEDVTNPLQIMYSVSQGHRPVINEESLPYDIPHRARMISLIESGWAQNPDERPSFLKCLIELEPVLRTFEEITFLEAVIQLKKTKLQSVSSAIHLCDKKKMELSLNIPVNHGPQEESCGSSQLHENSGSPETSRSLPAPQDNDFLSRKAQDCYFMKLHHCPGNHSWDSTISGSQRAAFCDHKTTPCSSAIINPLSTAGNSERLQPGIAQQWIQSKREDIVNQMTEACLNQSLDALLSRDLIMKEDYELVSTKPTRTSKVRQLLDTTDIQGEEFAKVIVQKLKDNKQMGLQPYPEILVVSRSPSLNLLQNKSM
Protocol: as §1
as §3, with “RIPK2” for “Flt3”, “0.33 mg/ml myelin basic protein,” for “50 μM EAIYAAPFAKKK (SEQ ID NO:206),”

Lck(h) = Lck(h) (Homo sapiens, UniProt P06239); details: read-out: percent residual activity of Lck(h)
Lck(h), sequence (P06239 whole entry): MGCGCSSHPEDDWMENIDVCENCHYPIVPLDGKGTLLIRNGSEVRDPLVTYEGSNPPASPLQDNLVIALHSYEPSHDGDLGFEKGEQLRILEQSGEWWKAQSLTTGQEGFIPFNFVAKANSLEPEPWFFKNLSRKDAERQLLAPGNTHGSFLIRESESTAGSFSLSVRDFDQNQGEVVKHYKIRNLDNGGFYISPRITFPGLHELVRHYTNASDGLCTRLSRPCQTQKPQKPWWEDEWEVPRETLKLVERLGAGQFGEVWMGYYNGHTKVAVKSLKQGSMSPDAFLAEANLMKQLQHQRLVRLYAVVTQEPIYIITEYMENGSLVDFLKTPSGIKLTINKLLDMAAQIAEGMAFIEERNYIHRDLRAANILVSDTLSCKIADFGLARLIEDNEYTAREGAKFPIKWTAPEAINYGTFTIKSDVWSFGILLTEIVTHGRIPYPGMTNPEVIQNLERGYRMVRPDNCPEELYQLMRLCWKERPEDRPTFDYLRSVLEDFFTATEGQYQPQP
Protocol: as §1
as §2, with “Lck” for “Fyn”, “NO:211)” for “NO:220)”

Fyn(h), sequence (P06241 whole entry): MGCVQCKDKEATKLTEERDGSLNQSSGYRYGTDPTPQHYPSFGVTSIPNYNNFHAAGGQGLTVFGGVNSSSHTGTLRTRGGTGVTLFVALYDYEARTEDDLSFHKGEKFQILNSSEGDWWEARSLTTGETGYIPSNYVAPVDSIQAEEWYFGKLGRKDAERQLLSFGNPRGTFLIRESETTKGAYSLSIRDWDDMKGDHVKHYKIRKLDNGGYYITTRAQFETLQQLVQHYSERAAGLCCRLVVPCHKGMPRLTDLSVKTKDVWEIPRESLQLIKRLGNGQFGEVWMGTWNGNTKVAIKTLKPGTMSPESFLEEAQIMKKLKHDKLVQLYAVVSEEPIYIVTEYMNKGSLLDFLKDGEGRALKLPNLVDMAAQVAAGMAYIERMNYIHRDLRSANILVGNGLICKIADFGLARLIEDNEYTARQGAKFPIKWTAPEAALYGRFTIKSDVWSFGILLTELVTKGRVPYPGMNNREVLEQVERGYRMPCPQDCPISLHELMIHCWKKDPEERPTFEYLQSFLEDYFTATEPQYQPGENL

remaining activity at 2.5 µM (Fyn(h)) [%] | remaining activity at 2.5 µM (Flt3(h)) [%] | remaining activity at 2.5 µM (MuSK(h)) [%] | remaining activity at 2.5 µM (cKit(D816V)(h)) [%] | remaining activity at 2.5 µM (RIPK2(h)) [%] | remaining activity at 2.5 µM (Lck(h)) [%] | Structure (SMILES)
97 | 32 | 110 | 104 | 95 | 170 | CN1CCCC1CCNC(=O)c1cn2c3c(c(N4CCC(c5cnccn5)C4)c(F)cc3c1=O)Oc1cc3ccccc3cc1-2 (stereo not drawn) [Compound A-1]
85 | 100 | 108 | 103 | 99 | 115 | CC(=O)N1CCN(c2ccc3c(=O)c(C(=O)NCCN4CCCC4)c4n(C)c5ccccc5n4c3n2)CC1 [Compound B-1]
